Assay results reported in patent EP0548931A1, “Material for controlling pests” (SUMITOMO CHEMICAL COMPANY, LIMITED, priority 1991, dated 1993).

Tested on: Thrips palmi
Experiment: Test Example 3: blue cloth material (Production Example 3) in glass vessel with cucumber seedlings, count of adults
Assay type: in vivo
Settings: 0.16 mg/cm², 28° ±1°C
Protocol: The same procedure as in Production Example 2 is repeated except that a blue cloth replaces the yellow cloth, to obtain a material for controlling pests containing 0.16 mg/cm² of the active ingredient.
Soil was placed on the bottom of a glass vessel of 70 cm x 35 cm x 35 cm in size. Three cucumber seedlings, on which Thrips palmi had been parasitized, were planted at the central part of the glass vessel. After three days, a material for controlling pests with pyriproxyfen as insect growth regulator prepared according to Production Example 3 was formed into a size of 15 cm x 15 cm and set at a height of 5 cm above the ground. On the other hand, the same test was carried out using a blue cloth containing no insect growth regulator as a control.
On the predetermined day, the number of Thrips palmi adults parasitized on the cucumbers was counted. The tests were carried out in a room kept at 28° ±1°C.

## CC(COc1ccc(Oc2ccccc2)cc1)Oc1ccccn1 (stereo not shown) [pyriproxyfen, 4-phenoxyphenyl 2-(2-pyridyloxy)propyl ether]
0 days elapsed after setting, blue cloth 15 cm x 15 cm
  number of Thrips palmi adults parasitized on the cucumbers: 5
7 days elapsed after setting, blue cloth
  number of Thrips palmi adults parasitized on the cucumbers: 5
14 days elapsed after setting, blue cloth
  number of Thrips palmi adults parasitized on the cucumbers: 3
21 days elapsed after setting, blue cloth
  number of Thrips palmi adults parasitized on the cucumbers: 2
